Reference: patent US20180133223A1, “COMBINATION THERAPY WITH A PHOSPHOINOSITIDE 3-KINASE INHIBITOR WITH A ZINC BINDING MOIETY” (Curis, Inc., priority 2016, published 2018)
Marks after values point to notes of the source that are not given here.

How the values were obtained:
[1] = test system: HDACs (HeLa cell nuclear extracts); experiment: HDAC activity assay (Biomol Color de Lys), HeLa cell nuclear extracts; assay type: biochemical; settings: HeLa cell nuclear extracts as source of HDACs
Procedure: HDAC inhibitory activity was assessed using the Biomol Color de Lys system (AK-500, Biomol, Plymouth Meeting, Pa.). Briefly, HeLa cell nuclear extracts were used as a source of HDACs. Different concentrations of test compounds were serially diluted in dimethylsulfoxide (DMSO) and added to HeLa cell nuclear extracts in the presence of a colorimetric artificial substrate. Final assay condition contained 50 mM Tris/Cl, pH 8.0, 137 mM NaCl, 2.7 mM KCl and 1 mM MgCl2. Reactions were carried in room temperature (25° C.) for 1 hour before addition of developer for termination. Relative enzyme activity was measured in the WALLAC Victor II 1420 microplate reader as fluorescence intensity (excitation: 350-380 nm; emission: 440-460 nm). Data were analyzed using GraphPad Prism (v4.0a) with a sigmoidal dose response curve fitting for IC50 calculation.

OCILY3 = experiment: Tumor growth inhibition, OCILY3; assay type: in vivo; settings: OCILY3, 100 mg/kg
SUDHL4 = experiment: SU-DHL-4 diffuse large B cell lymphoma xenograft model; assay type: in vivo, mice; settings: SUDHL4, 100 mg/kg
Procedure: 7- to 9-week-old female immunodeficient Fox Chase SCID Beige mice (15-24 g) obtained from Charles River Laboratories (Wilmington, Mass.) were subcutaneously injected with 5×10^6 SU-DHL-4 cells in a medium suspension of 100 μL cold PBS into the right hind flank region. The treatment was started 29 days following implantation; the average tumor size reached was 126 mm^3. […] Venetoclax (ABT-199) was dissolved in Vehicle 2 (60% phosal 50 PG, 30% PEG 400 and 10% ethanol) to a concentration of 20 mg/mL.
In Groups H to K, Compound 1 and venetoclax were dosed within one minute of each other.
Tumor size was measured twice weekly and the volume was expressed in mm^3 using the formula, V=0.5a×b^2, where a and b were the long and short diameters of the tumor, respectively. The tumor size was then used for the calculation of tumor growth inhibition (TGI)=(1−(T1−T0)/(C1−C0))×100, where C1=mean tumor volume of control mice at time t; T1=mean tumor volume of treated mice at time t; C0=mean tumor volume of control mice at time 0; and T0=mean tumor volume of treated mice at time 0.
(§1) Differences between values obtained in tumors treated with different experimental conditions were determined using the Student's t-test on GraphPad Prism 5.0 (Graphpad Software). p<0.05 was considered as statistically significant.

KARPAS422 = experiment: Tumor growth inhibition, KARPAS422; assay type: in vivo; settings: KARPAS422, 100 mg/kg
WSUDLCL2 = experiment: Tumor growth inhibition, WSUDLCL2; assay type: in vivo; settings: WSUDLCL2, 100 mg/kg
DOHH2 = DOHH2 diffuse large B cell lymphoma xenograft model; assay type: in vivo, mice; settings: DOHH2, 100 mg/kg
Procedure: Six- to 9-week-old female immunodeficient Fox Chase SCID Beige mice obtained from Charles River Laboratories (Wilmington, Mass.) were subcutaneously injected with 5×10^6 cells in a medium suspension of 100 to 200 μL into the right hind flank region. The treatment was started when the average tumor size reached approximately 100 to 200 mm^3. […] Venetoclax was formulated in 60% phosal 50PG, 30% PEG 400, 10% ethanol (Vehicle 2; Sigma Aldrich, St. Louis, Mo.).
Varying doses of Compound 1 alone, venetoclax alone, the two agents in combination or vehicle were administered orally as per Institutional Animal Care and Use Committee guidelines. […] Venetoclax and Vehicle 2 were dosed daily for 21 days.
Tumor size was measured twice weekly and the volume was expressed in mm^3 using the formula, V=0.5a×b^2, where a and b were the long and short diameters of the tumor, respectively. […]
as §1

U2932 = experiment: Tumor growth inhibition, U2932; assay type: in vivo; settings: U2932, 100 mg/kg
[2] = Oral bioavailability in animal models; assay type: in vivo
[3] = Tumor tissue uptake in xenograft tumor bearing mice; assay type: in vivo; settings: oral or intravenous dosing
xenograft tumor = experiment: Mouse xenograft tumor models; assay type: in vivo; settings: oral or intravenous administration
[4] = Genotoxicity testing, Ames test
DOHH2 cells = experiment: Cancer cell proliferation / drug combination (CellTiter-Glo); assay type: cell-based; settings: DOHH2, Follicular Lymphoma, single agent; read-out: ABT-199 EC50
Procedure: (§2) DLBCL cancer cell lines were purchased from the American Type Culture Collection (Manassas, Va.) and German Collection of Microorganisms and Cell Cultures (Braunschweig, Germany). Cells were maintained according to manufacturing recommendation and incubated at 37° C. in a humidified atmosphere of 5% CO2. Growth media was changed every 2 to 3 days and cells were maintained at a density of 2×10^6 to 4×10^6 cells/mL. Exponentially growing cell cultures were used for all experiments described below.
(§3) Cells were plated at densities of 2×10^4 in 96-well flat-bottomed plates with the recommended culture medium for proliferation assays. Cells were then incubated with indicated compounds at various concentrations for indicated amount of time in culture medium supplemented with 10% (v/v) FBS. Cell viability was assessed using the […]-GLO® Luminescent Cell Viability Assay (Promega, Madison, Wis.). GraphPad Prism 5.0 (Graphpad Software, La Jolla, Calif.) was used for curve fitting and IC50 calculation. Two independent experiments with duplicates were performed for each experiment.
(§4) Drug combination synergy was determined based on dose-effect curves generated as cell proliferation after 24 hours of treatment.

KARPAS422 cells = experiment: as above; assay type: cell-based
Procedure: as §2, §3, §4

OCILY3 cells = experiment: as above; assay type: cell-based
Procedure: as §2, §3, §4

SUDHL4 cells = experiment: as above; assay type: cell-based
Procedure: as §2, §3, §4

U2932 cells = experiment: as above; assay type: cell-based; settings: U2932, ABC DLBCL, single agent; read-out: ABT-199 EC50
Procedure: as §2, §3, §4

WSUDLCL2 cells = experiment: as above; assay type: cell-based
Procedure: as §2, §3, §4

COc1ccc(-c2nc(N3CCOCC3)c3sc(CN(C)c4ncc(C(=O)NO)cn4)cc3n2)cn1 [Compound 1, N-hydroxy-2-(((2-(6-methoxypyridin-3-yl)-4-morpholinothieno[3,2-d]pyrimidin-6-yl)methyl)(methyl)amino)pyrimidine-5-carboxamide]
IC50 [1]: < 100 nM | Compound 1 %TGI (100 mg/kg) (OCILY3): 23% | Compound 1 %TGI (100 mg/kg) (SUDHL4): 47%* | Compound 1 %TGI (100 mg/kg) (KARPAS422): 33% | Compound 1 %TGI (100 mg/kg) (WSUDLCL2): 69% | Compound 1 %TGI (100 mg/kg) (DOHH2): 56% | Compound 1 %TGI (100 mg/kg) (U2932): 97% | oral bioavailability [2]: significant oral bioavailability | uptake by the tumor tissue [3]: significant uptake by the tumor tissue | antitumor activity (xenograft tumor): substantial antitumor activity | safety profile, genotoxicity (Ames test) [4]: favorable safety profile

venetoclax [ABT-199]
EC50 (DOHH2 cells): 133 nM | sensitivity of cell line to single agent (KARPAS422 cells; KARPAS422): refractory | EC50 (KARPAS422 cells; KARPAS422, Follicular Lymphoma, single agent, read-out: ABT-199 EC50): 15600 nM | sensitivity of cell line to single agent (OCILY3 cells; OCILY3): refractory | EC50 (OCILY3 cells; OCILY3, ABC DLBCL, single agent, read-out: ABT-199 EC50): 20000 nM | sensitivity of cell line to single agent (SUDHL4 cells; SUDHL4): refractory | EC50 (SUDHL4 cells; SUDHL4, GBC DLBCL, single agent, read-out: ABT-199 EC50): 2130 nM | EC50 (U2932 cells): 476 nM | sensitivity of cell line to single agent (WSUDLCL2 cells; WSUDLCL2): refractory | EC50 (WSUDLCL2 cells; WSUDLCL2, GCB DLBCL, single agent, read-out: ABT-199 EC50): 3660 nM
